Where two headings read alike, the source gives them in different places.
Assays:
CBL-B = molecular target: T1, CBL-B (Homo sapiens, UniProt Q13191); assay: Jurkat HiBit-IL2 assay (c-CBL KO), reporter cell line expressing CBL-B only; assay type: cell-based; conditions: geometric mean, read-out: C-CBL KO EC50 (nM) GMean
T1 construct: endogenous in cells; host or cells: Jurkat HiBit-IL2 reporter cells, C-CBL knocked out by CRISPR
Summary of the method: (§1)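 IL-2 secretion was measured by HiBiT luminescence after 1 h compound exposure (0.1% DMSO) and 4 h TCR/CD28 stimulation (final anti-CD3 1 μg/ml, anti-CD28 2 μg/ml, 37 °C) of Jurkat reporters lacking c-CBL or CBL-B. EC50 came from fold-of-effect versus stimulated-only cells, as geometric means across tests.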

WT CBL-B (36-427) = molecular target: T2, WT CBL-B (36-427) (Homo sapiens, UniProt Q13191); assay: Surface Plasmon Resonance (SPR) assay, binding affinity and kinetics, CBL-B; conditions: SPR at 10° C., biotinylated WT CBL-B (36-427) on streptavidin chip; geometric mean; read-out: CBL-B SPR Kd (nM) GMean
T2 construct: N-terminal biotinylated WT CBL-B (36-427) and C-CBL (46-435) were captured on a streptavidin (SA) coated sensor chip
T2 sequence (Q13191 36-427): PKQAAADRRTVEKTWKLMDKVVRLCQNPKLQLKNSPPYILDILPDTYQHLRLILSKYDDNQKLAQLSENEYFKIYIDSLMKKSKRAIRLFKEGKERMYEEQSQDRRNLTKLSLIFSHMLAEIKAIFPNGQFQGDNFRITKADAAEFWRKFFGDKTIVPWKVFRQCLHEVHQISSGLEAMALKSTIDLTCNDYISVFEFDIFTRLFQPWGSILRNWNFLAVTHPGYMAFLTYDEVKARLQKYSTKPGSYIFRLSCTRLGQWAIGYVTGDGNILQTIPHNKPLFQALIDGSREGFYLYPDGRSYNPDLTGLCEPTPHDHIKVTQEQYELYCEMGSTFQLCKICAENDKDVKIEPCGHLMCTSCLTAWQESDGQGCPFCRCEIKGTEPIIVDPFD
Summary of the method: (§2)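 SPR kinetics at 10° C, run either single-cycle (0.001–1 μM, 3-fold, 6 points, 120 s on, >5400 s off) or multi-cycle (10 points, 2-fold, top 10 or 100 μM, 90 s on). Proteins were N-biotinylated CBL-B (36-427) and C-CBL (46-435) on SA surfaces, in pH 7.2 HEPES, 2% DMSO.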

C-CBL (46-435) = molecular target: T3, C-CBL (46-435) (Homo sapiens, UniProt P22681); assay: Surface Plasmon Resonance (SPR) assay, binding affinity and kinetics, C-CBL; conditions: SPR at 10° C., biotinylated C-CBL (46-435) on streptavidin chip; geometric mean; read-out: C-CBL SPR Kd (nM) GMean
T3 construct: N-terminal biotinylated WT CBL-B (36-427) and C-CBL (46-435) were captured on a streptavidin (SA) coated sensor chip
T3 sequence (P22681 46-435): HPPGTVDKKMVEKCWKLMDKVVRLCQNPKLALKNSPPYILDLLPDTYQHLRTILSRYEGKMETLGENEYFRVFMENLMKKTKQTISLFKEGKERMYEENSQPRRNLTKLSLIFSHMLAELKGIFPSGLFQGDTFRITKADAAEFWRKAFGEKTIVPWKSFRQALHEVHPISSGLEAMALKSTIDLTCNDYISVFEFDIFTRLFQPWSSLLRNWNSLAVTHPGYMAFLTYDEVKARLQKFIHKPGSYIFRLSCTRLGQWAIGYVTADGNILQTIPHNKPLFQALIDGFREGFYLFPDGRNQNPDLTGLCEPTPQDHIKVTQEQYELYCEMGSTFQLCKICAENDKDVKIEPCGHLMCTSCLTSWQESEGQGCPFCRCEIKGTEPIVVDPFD
Summary of the method: as §2

C-CBL = molecular target: T4, C-CBL (Homo sapiens, UniProt P22681); assay: Jurkat HiBit-IL2 assay (CBL-B KO), reporter cell line expressing C-CBL only; assay type: cell-based; conditions: geometric mean, read-out: CBL-B KO EC50 (nM) GMean
T4 construct: endogenous in cells; host or cells: Jurkat HiBit-IL2 reporter cells, CBL-B knocked out by CRISPR
Summary of the method: as §1

[1] = C-CBL KO (expressing CBL-B only), Table 16b (further repetition)
[2] = c-CBL KO (CBL-B only), anti-CD3/anti-CD28 stimulation 4 hours, Table 16a
[3] = CBL-B KO (C-CBL only), anti-CD3/anti-CD28 stimulation 4 hours, Table 16a
[4] = CBL-B KO (expressing C-CBL only), Table 16b (further repetition)

T1 sequence (Q13191 whole entry): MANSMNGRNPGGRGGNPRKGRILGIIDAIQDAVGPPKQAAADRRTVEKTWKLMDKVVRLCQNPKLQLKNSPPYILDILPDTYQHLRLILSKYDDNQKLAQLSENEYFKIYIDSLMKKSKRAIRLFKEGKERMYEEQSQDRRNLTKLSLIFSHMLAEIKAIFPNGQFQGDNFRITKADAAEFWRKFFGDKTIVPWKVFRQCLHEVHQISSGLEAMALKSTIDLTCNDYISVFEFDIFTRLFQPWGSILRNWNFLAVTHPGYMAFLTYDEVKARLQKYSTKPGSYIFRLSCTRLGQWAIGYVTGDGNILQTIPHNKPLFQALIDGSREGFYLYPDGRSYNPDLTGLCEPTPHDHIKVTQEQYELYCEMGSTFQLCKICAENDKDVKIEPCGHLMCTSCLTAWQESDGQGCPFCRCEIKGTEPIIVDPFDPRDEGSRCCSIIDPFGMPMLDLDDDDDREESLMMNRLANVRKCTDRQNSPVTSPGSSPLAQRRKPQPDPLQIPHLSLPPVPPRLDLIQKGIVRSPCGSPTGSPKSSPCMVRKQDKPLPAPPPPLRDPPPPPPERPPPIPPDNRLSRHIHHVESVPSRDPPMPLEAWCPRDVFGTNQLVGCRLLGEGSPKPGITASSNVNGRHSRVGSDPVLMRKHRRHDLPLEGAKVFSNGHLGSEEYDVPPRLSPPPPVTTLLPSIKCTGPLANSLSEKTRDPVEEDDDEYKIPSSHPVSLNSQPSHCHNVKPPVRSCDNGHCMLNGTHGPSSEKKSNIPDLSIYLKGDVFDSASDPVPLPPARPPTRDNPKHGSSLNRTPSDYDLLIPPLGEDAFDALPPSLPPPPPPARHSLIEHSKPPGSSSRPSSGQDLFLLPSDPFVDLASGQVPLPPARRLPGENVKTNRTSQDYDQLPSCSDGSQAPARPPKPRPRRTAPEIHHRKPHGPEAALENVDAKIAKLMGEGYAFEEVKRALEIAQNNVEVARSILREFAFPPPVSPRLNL

Compound	EC50 (CBL-B; [1])	EC50 (CBL-B; [2])	Kd (WT CBL-B (36-427))	Kd (C-CBL (46-435))	EC50 (C-CBL; [3])	EC50 (C-CBL; [4])
CC(C)NC(C)c1nc(C(F)(F)F)cc2c(-c3cccc([C@H](c4nncn4C)C4CCC4)c3)n[nH]c12 (single isomer, unassigned) [Example C34]	86 nM	67 nM	5.2 nM	172 nM	892 nM	428 nM
CC(C)NC(C)c1nc(C(F)(F)F)cc2c(-c3cccc([C@H](c4nncn4C)C4CCC4)c3)n[nH]c12 (single isomer, unassigned) [Example C35]		15 nM	2.8 nM	54 nM	172 nM	
C[C@H](N[C@H]1C[C@@H](O)C1)c1nc(C(F)(F)F)cc2c(-c3cccc([C@H](c4nncn4C)C4CCC4)c3)n[nH]c12 (single isomer, unassigned) [Example C36]	35 nM	20 nM	2 nM	17.9 nM	173 nM	160 nM
C[C@@H](N[C@H]1C[C@@H](O)C1)c1nc(C(F)(F)F)cc2c(-c3cccc([C@H](c4nncn4C)C4CCC4)c3)n[nH]c12 (single isomer, unassigned) [Example C37]		173 nM	3.3 nM	75.5 nM	1040 nM	
C[C@H](N[C@H]1CCC[C@@H]1O)c1nc(C(F)(F)F)cc2c(-c3cccc([C@H](c4nncn4C)C4CCC4)c3)n[nH]c12 (single isomer, unassigned) [Example C47]	11 nM	5 nM	1.6 nM	7.2 nM	105 nM	76 nM
CCNC(C)c1nc(C(F)(F)F)cc2c(-c3cccc([C@H](c4nncn4C)C4CCC4)c3)n[nH]c12 (single isomer, unassigned) [Example C89]	85 nM		4.1 nM	125 nM		471 nM
C[C@@H](N[C@H]1C[C@H](O)C1)c1nc(C(F)(F)F)cc2c(-c3cccc([C@H](c4nncn4C)C4CCC4)c3)n[nH]c12 (single isomer, unassigned) [Example C92]	113 nM		2.7 nM	39.5 nM		525 nM
C[C@H](N[C@H]1C[C@@H](F)C1)c1nc(C(F)(F)F)cc2c(-c3cccc([C@H](c4nncn4C)C4CCC4)c3)n[nH]c12 (single isomer, unassigned) [Example C95]	53 nM		2.3 nM	72.5 nM		230 nM
C[C@@H](N[C@H]1C[C@@H](F)C1)c1nc(C(F)(F)F)cc2c(-c3cccc([C@H](c4nncn4C)C4CCC4)c3)n[nH]c12 (single isomer, unassigned) [Example C96]	76 nM		3.3 nM	91.2 nM		574 nM
C[C@H](N[C@@H]1CCOC1)c1nc(C(F)(F)F)cc2c(-c3cccc([C@H](c4nncn4C)C4CCC4)c3)n[nH]c12 (single isomer, unassigned) [Example D2]	83 nM	42 nM	3.8 nM	108 nM	465 nM	425 nM
C[C@@H](N[C@@H]1CCOC1)c1nc(C(F)(F)F)cc2c(-c3cccc([C@H](c4nncn4C)C4CCC4)c3)n[nH]c12 (single isomer, unassigned) [Example D3]	67 nM	47 nM	4 nM	124 nM	472 nM	333 nM
C[C@@H](c1nc(C(F)(F)F)cc2c(-c3cccc(C4(Cc5nncn5C)COC4)c3)n[nH]c12)N1CCC(F)(F)C1 (single isomer, unassigned) [Example D5]		650 nM	21.9 nM	209 nM	1380 nM	
C[C@H](c1nc(C(F)(F)F)cc2c(-c3cccc(C4(Cc5nncn5C)COC4)c3)n[nH]c12)N1CCC(F)(F)C1 (single isomer, unassigned) [Example D6]		64 nM	1.8 nM	31 nM	235 nM	
C[C@@H](c1nc(C(F)(F)F)cc2c(-c3cccc(C4(Cc5nncn5C)COC4)c3)n[nH]c12)N1C[C@H](F)[C@@H](F)C1 (single isomer, unassigned) [Example D7]		80 nM	2.3 nM	36 nM	380 nM	
C[C@H](c1nc(C(F)(F)F)cc2c(-c3cccc(C4(Cc5nncn5C)COC4)c3)n[nH]c12)N1C[C@H](F)[C@@H](F)C1 (single isomer, unassigned) [Example D8]		603 nM	15.8 nM	177 nM	1210 nM	
C[C@@H](c1nc(C(F)(F)F)cc2c(-c3cccc(C4(Cc5nncn5C)COC4)c3)n[nH]c12)N1CC[C@@H](F)C1 (single isomer, unassigned) [Example D9]		627 nM	8.3 nM	96 nM	1770 nM	
C[C@H](c1nc(C(F)(F)F)cc2c(-c3cccc(C4(Cc5nncn5C)COC4)c3)n[nH]c12)N1CC[C@@H](F)C1 (single isomer, unassigned) [Example D10]		102 nM	2.8 nM	42 nM	595 nM	
C[C@H]1CN([C@@H](C)c2nc(C(F)(F)F)cc3c(-c4cccc(C5(Cc6nncn6C)COC5)c4)n[nH]c23)CCO1 (single isomer, unassigned) [Example D11]		143 nM	4.2 nM	47.9 nM	512 nM	
C[C@H](c1nc(C(F)(F)F)cc2c(-c3cccc(C4(Cc5nncn5C)COC4)c3)n[nH]c12)N1CCO[C@@H](C)C1 (single isomer, unassigned) [Example D12]		612 nM	6.6 nM	46 nM	973 nM	
C[C@@H]1CCCN([C@@H](C)c2nc(C(F)(F)F)cc3c(-c4cccc(C5(Cc6nncn6C)COC5)c4)n[nH]c23)C1 (single isomer, unassigned) [Example D13]		149 nM	3.5 nM	51.2 nM	539 nM	
C[C@@H]1CCCN([C@H](C)c2nc(C(F)(F)F)cc3c(-c4cccc(C5(Cc6nncn6C)COC5)c4)n[nH]c23)C1 (single isomer, unassigned) [Example D14]		354 nM	11.1 nM	140 nM	2010 nM	
C[C@H](N[C@@H]1CCC[C@@H]1O)c1nc(C(F)(F)F)cc2c(-c3cccc([C@H](c4nncn4C)C4CCC4)c3)n[nH]c12 (single isomer, unassigned) [Example D15]	4 nM	3 nM	2.5 nM	6.2 nM	20 nM	11 nM
C[C@@H](N[C@@H]1CCC[C@@H]1O)c1nc(C(F)(F)F)cc2c(-c3cccc([C@H](c4nncn4C)C4CCC4)c3)n[nH]c12 (single isomer, unassigned) [Example D16]		18 nM	3.6 nM	43.1 nM	188 nM	
C[C@H](O)CN[C@@H](C)c1nc(C(F)(F)F)cc2c(-c3cccc([C@H](c4nncn4C)C4CCC4)c3)n[nH]c12 (single isomer, unassigned) [Example D19]	24 nM	9 nM	1.6 nM	17.2 nM	132 nM	157 nM

Reference: patent US20260125375A1 (Pfizer Inc., priority 2022, published 2026)
